The source of these data is paper PMC9174238, “pH- and concentration-dependent supramolecular assembly of a fungal defensin plectasin variant into helical non-amyloid fibrils” (Nature Communications, 2022).

The target in data set [1] is plectasin variant D9S Q14K V36L (PPI42). In words: dynamic light scattering; pH series, phosphate buffer above pH 6, 2 mg/mL (450 µM), 25 °C.
A short description of data set [2]: pKa by 2D 1H-1H TOCSY NMR pH titration. The following applies: imidazole ring protons, 50 mM phosphate buffer, 298 K. The class given is physicochemical. The source says:
2D ^1H–^1H TOCSY NMR spectra were acquired by sampling the FID for 117 and 14.5 milliseconds by acquiring 1024 × 128 complex data points in the direct and indirect dimensions, respectively. For these ^1H–^1H TOCSY NMR experiments, 16 transients were acquired with an inter-scan relaxation delay of 1 second. All NMR spectra were processed with ample zero filling in all spectral dimensions in Bruker Topspin 3.5 pl7 software and integrated into the same software. Data were plotted in proFit 7 (Quantum Soft). Titration curves were fitted to the Henderson-Hasselbalch equation in proFit 7 as δobs=(δA+10^pKa−pH*δHA)/(1+10^pKa−pH), where δobs is the measured chemical shift, δA is the chemical shift of the deprotonated form and δHA is the chemical shift of the protonated form. The pH of the sample was determined after the measurement.

Another data set deals with female NMRI mice. The following applies: single intravenous bolus 50 mg/kg, observed 4 days, previously performed, ref ICAAC 2006 poster F2-1166; cited from earlier work. The source says:
page 11: homeostatic conditions.

Data set [3] in a line: Thioflavin T fluorescence measurements. The format is physicochemical. The following applies: Gly-HCl pH 2.5; dissolved; c=2 mg/mL; excitation 440±10 nm, emission 490±10 nm. The method, then: Plectasin stock solutions were dialyzed against 10 mM acetate buffer pH 5.5. A final concentration of 2 mg/mL (450 µM) was obtained by dilution with the dialysis buffer and ThT was added to a final concentration of 20 µM. The fluorescence was monitored after each cycle at 490 ± 10 nm with excitation at 440 ± 10 nm with a gain of 1000 using FLOUstar Omega multi-mode microplate reader (BMG Labtech). Omega software was used to control the plate reader and export the data. Insulin was fibrillated at 40 °C with agitation (600 rpm) for 150 s every 5 min[79]. Additionally, the fluorescence of a sample containing insulin fibrils at a protein concentration of 2 mg/mL was compared to freshly dialyzed plectasin in 10 mM acetate buffer pH 3.5 and pH 5.5 and a sample diluted into 10 mM acetate buffer pH 5.5 and 10 mM phosphate buffer pH 6.5, equilibrated for 12 h was compared (end-point measurement).

For data set [4] the following is noted: cited from earlier work. From the text: The structure of plectasin is stabilized by three disulfide bridges (C4-C30; C15-C37; C19-C39), which is typical for this type of defensins and leads to high confor ...
A further data set addresses His16 (position 16, …). The data set is described as follows: NMR. The following applies: 298 K; not stated (50 mM buffer; no added salt mentioned); 50 mM phosphate according to the Fig. 6b caption. Methods: 50 mM phosphate or 50 mM acetate, with the stock dialysed against 10 mM acetate pH 3.5 and diluted into the final buffer.; Folded, disulfide-intact soluble monomer at 250 µM total protein; fibrils forming at higher pH are NMR-invisible.

A further data set deals with His18 (position 18, …). In words: NMR. The following applies: 298 K; not stated (50 mM buffer; no added salt mentioned); 50 mM phosphate according to the Fig. 6b caption. Methods: 50 mM phosphate or 50 mM acetate, with the stock dialysed against 10 mM acetate pH 3.5 and diluted into the final buffer.; Folded, disulfide-intact soluble monomer at 250 µM total protein; fibrils forming at higher pH are NMR-invisible.

Where a SMILES comes first, the peptide text is derived from it. Bridges are numbered along the chain shown (N, C = ends). Bounds are passed on as bounds.

“plectasin variant D9S Q14K V36L (PPI42) (peptide)” registered a fraction of medium-sized oligomers and fibrils (% mass) in data set [1] below 2.5 % mass.

For the molecule `CC[C@H](C)[C@@H]1NC(=O)[C@H](CO)NC(=O)[C@H](CCCCN)NC(=O)[C@@H]2CSSC[C@@H](C(=O)N[C@@H](Cc3ccc(O)cc3)C(=O)O)NC(=O)[C@H](CCCCN)NC(=O)[C@@H]3CSSC[C@H](NC(=O)[C@H](CCCCN)NC(=O)[C@H](CCSC)NC(=O)[C@H](CC(=O)O)NC(=O)[C@H](CC(=O)O)NC(=O)[C@H](CCC(=O)O)NC(=O)[C@H](CO)NC(=O)[C@H](Cc4c[nH]c5ccccc45)NC(=O)[C@@H]4CCCN4C(=O)CNC(=O)[C@H](CC(N)=O)NC(=O)[C@@H](NC(=O)CNC(=O)[C@H](Cc4ccccc4)NC(=O)CN)CSSC[C@H](NC(=O)[C@H](Cc4ccc(O)cc4)NC(=O)CNC(=O)CNC(=O)[C@H](CCCCN)NC(=O)[C@H](Cc4ccc(O)cc4)NC(=O)CNC(=O)[C@H](CCCCN)NC1=O)C(=O)N[C@@H](C)C(=O)N[C@@H](CCCCN)C(=O)NCC(=O)NCC(=O)N[C@@H](Cc1ccccc1)C(=O)N[C@@H](CC(C)C)C(=O)N3)C(=O)N[C@@H](Cc1c[nH]cn1)C(=O)N[C@@H](CC(N)=O)C(=O)N[C@@H](Cc1c[nH]cn1)C(=O)N2` [PPI42] (H-GFGCNGPWSEDDMKCHNHCKSIKGYKGGYCAKGGFLCKCY-OH; disulfide 4-30, 15-37, 19-39), in data set [2], the “pKa for (H16)” value was found to be 4.4 and the “pKa for (H18)” value was determined as 6.4. In the data set with female NMRI mice, the “Maximum Tolerated Dose (MTD)” value is listed as above 50 mg/kg and the “No Observed Adverse Effect Level (NOAEL)” value is given as above 50 mg/kg.

Regarding “Insulin: positive control known to form amyloid fibrils upon shaking at 40 °C”, the “Thioflavin T fluorescence (490 nm), end-point” value in data set [3] is on record as 13428.8.

Turning to `CC[C@H](C)[C@@H]1NC(=O)[C@H](CO)NC(=O)[C@H](CCCCN)NC(=O)[C@@H]2CSSC[C@@H](C(=O)N[C@@H](Cc3ccc(O)cc3)C(=O)O)NC(=O)[C@H](CCCCN)NC(=O)[C@@H]3CSSC[C@H](NC(=O)[C@H](CCC(N)=O)NC(=O)[C@H](CCSC)NC(=O)[C@H](CC(=O)O)NC(=O)[C@H](CC(=O)O)NC(=O)[C@H](CCC(=O)O)NC(=O)[C@H](CC(=O)O)NC(=O)[C@H](Cc4c[nH]c5ccccc45)NC(=O)[C@@H]4CCCN4C(=O)CNC(=O)[C@H](CC(N)=O)NC(=O)[C@@H](NC(=O)CNC(=O)[C@H](Cc4ccccc4)NC(=O)CN)CSSC[C@H](NC(=O)[C@H](Cc4ccc(O)cc4)NC(=O)CNC(=O)CNC(=O)[C@H](CCCCN)NC(=O)[C@H](Cc4ccc(O)cc4)NC(=O)CNC(=O)[C@H](CCCCN)NC1=O)C(=O)N[C@@H](C)C(=O)N[C@@H](CCCCN)C(=O)NCC(=O)NCC(=O)N[C@@H](Cc1ccccc1)C(=O)N[C@@H](C(C)C)C(=O)N3)C(=O)N[C@@H](Cc1c[nH]cn1)C(=O)N[C@@H](CC(N)=O)C(=O)N[C@@H](Cc1c[nH]cn1)C(=O)N2` [plectasin wildtype], in data set [4], the in vivo half-life result is reported as “long in vivo half-life”, the serum stability entry is “high serum stability” and the toxicity entry is on record as “low toxicity”.

In the case of GFGCNGPWSEDDMKCHNHCKSIKGYKGGYCAKGGFLCKCY, the pKa entry is recorded as “around 4.4” with His16 (position 16, …) and “around 6.4” with His18 (position 18, …).
